Measurements taken from ChEMBL document CHEMBL6177993, “De Novo 3-(Phenylcarbamoyl) Benzoate Analogues: Efficacy against Multidrug-Resistant S. aureus and Elucidation of the Biodistribution Profile” (J Med Chem, 2025).
In brackets after ≈: the same amount, converted by molar mass. Activity calls are given as the source filed them. The rule behind the calls is not given here.

How the values were obtained:
Staphylococcus aureus [1] = assay: Antibacterial activity against methicillin-sensitive Staphylococcus aureus ATCC 29213 assessed as reduction in bacterial growth measured after 18 to 24 hrs by broth microdilution method; assay type: functional; settings: time 18-24 hrs
Escherichia coli = assay: Antibacterial activity against Escherichia coli ATCC 25922 assessed as reduction in bacterial growth measured after 18 to 24 hrs by broth microdilution method; assay type: functional; settings: time 18-24 hrs
Staphylococcus aureus [2] = assay: Antibacterial activity against methicillin-resistant Staphylococcus aureus NRS 186 assessed as reduction in bacterial growth measured after 18 to 24 hrs by broth microdilution method; assay type: functional; settings: time 18-24 hrs
Staphylococcus aureus [3] = assay: Antibacterial activity against methicillin-resistant Staphylococcus aureus NRS 129 assessed as reduction in bacterial growth measured after 18 to 24 hrs by broth microdilution method; assay type: functional; settings: time 18-24 hrs
Staphylococcus aureus [4] = assay: Antibacterial activity against methicillin-resistant Staphylococcus aureus NRS 100 assessed as reduction in bacterial growth measured after 18 to 24 hrs by broth microdilution method; assay type: functional; settings: time 18-24 hrs
Cell membrane = assay: Induction of cytoplasmic membrane depolarization in Staphylococcus aureus ATCC 29213 assessed as fold increase in fluorescence intensity at 10 times MIC measured after 30 min by DiSC3-5 dye based fluorescence method; assay type: subcellular
[5] = Toxicity in female BALB/c mouse assessed as effect on spleen measured after 24 hrs by H and E staining based analysis; assay type: tissue-based; settings: in vivo
Staphylococcus aureus [6] = assay: Bactericidal activity against Staphylococcus aureus ATCC 29213 at 4 to 8 time MIC measured after 8 hrs by time-kill assay; assay type: functional, organism-based
Staphylococcus aureus [7] = assay: Antibacterial activity against Staphylococcus aureus ATCC 29213 assessed as reduction in bacterial growth measured after 18 to 24 hrs by broth microdilution method; assay type: functional; settings: time 18-24 hrs
Staphylococcus aureus [8] = assay: Antibiofilm activity in Staphylococcus aureus ATCC 29213 assessed as disruption of preformed biofilm at 20 times MIC measured after 24 hrs by crystal violet staining based assay relative to control; assay type: functional
[9] = Drug distribution in female BALB/c mouse lung measured after 24 hrs; assay type: ADME, tissue-based; settings: in vivo
[10] = Toxicity in female BALB/c mouse assessed as effect on lung measured after 24 hrs by H and E staining based analysis; assay type: tissue-based; settings: in vivo
Staphylococcus aureus [11] = assay: Antibacterial activity against vacomycin-resistant Staphylococcus aureus VRS 12 assessed as reduction in bacterial growth measured after 18 to 24 hrs by broth microdilution method; assay type: functional; settings: time 18-24 hrs

O=C(O)c1cccc(C(=O)Nc2c(C(c3ccc(F)cc3)c3ccc(F)cc3)cc(Cl)cc2C(c2ccc(F)cc2)c2ccc(F)cc2)c1
MIC (Staphylococcus aureus [1]): 2 µg/mL (≈ 2.94 µM) | MIC (Escherichia coli): > 64 µg/mL | MIC (Staphylococcus aureus [2]): 2 µg/mL (≈ 2.94 µM) | MIC (Staphylococcus aureus [3]): 2 µg/mL (≈ 2.94 µM) | MIC (Staphylococcus aureus [4]): 2 µg/mL (≈ 2.94 µM) | fold change (FC) (Cell membrane): 4 | Activity [5]: Non-toxic | Activity (Staphylococcus aureus [6]): Active | MIC (Staphylococcus aureus [7]): 1 µg/mL (≈ 1.47 µM) | Activity (Staphylococcus aureus [8]): 18.42% | Drug uptake [9]: 9.91 nmol/mg | Activity [10]: Non-toxic | MIC (Staphylococcus aureus [11]): 2 µg/mL (≈ 2.94 µM)
